Experimental findings from ChEMBL document CHEMBL1126411, “Synthesis and HIV activity of phosphonate isosteres of D4T monophosphate” (Bioorg Med Chem Lett, 1992) are described below.

The structures appear in SMILES notation.

For this experiment, the system named is MT4. Description: Concentration required for the inhibition of HIV replication by 50% in MT-4 cells. It counts as functional, cell-based. The note with it: Homo sapiens.
One may read the IC50 as the point on the concentration scale where inhibition reaches its midpoint. A high value points to a need for much substance. In turn, `Cc1cn([C@H]2C=C[C@@H](CCP(=O)(O)O)O2)c(=O)[nH]c1=O` gave an IC50 greater than 1000 µM.
As for `Cc1cn([C@H]2C=C[C@@H](OCP(=O)(O)O)O2)c(=O)[nH]c1=O`, the IC50 was found to be 1.3 µM.
Consider `Cc1cn([C@H]2C=C[C@@H](OCP(=O)(O)O)C2)c(=O)[nH]c1=O`, for which the IC50 was greater than 1000 µM.
For `Cc1cn([C@H]2C=C[C@@H](CO)O2)c(=O)[nH]c1=O` [STAVUDINE], the concentration for half-maximal inhibition (IC50) amounted to 1.2 µM.
